According to ChEMBL document CHEMBL1671687, “Enhancement of biofilm formation by subinhibitory concentrations of macrolides in icaADBC-positive and -negative clinical isolates of Staphylococcus epidermidis” (2010):
Active and inactive are the calls of the source. The rule behind the calls is not given here.

Tests used:
[1] = system: Staphylococcus epidermidis; experiment: Upregulation of sarA gene expression in Staphylococcus epidermidis SW029 at 8 ug/ml after 6 hrs by RT-PCR relative to untreated control; assay type: functional
[2] = system: Staphylococcus epidermidis; experiment: Enhancement of biofilm formation Staphylococcus epidermidis SW099 at 1/4 X MIC by microtiter plate assay; assay type: functional
[3] = system: Staphylococcus epidermidis; experiment: Upregulation of pyrR gene expression in Staphylococcus epidermidis SW036 at 8 ug/ml after 6 hrs by RT-PCR relative to untreated control; assay type: functional
[4] = system: Staphylococcus epidermidis; experiment: Enhancement of biofilm formation Staphylococcus epidermidis SW098 expressing icaA gene at 1/4 X MIC by microtiter plate assay; assay type: functional
[5] = system: Staphylococcus epidermidis; experiment: Enhancement of biofilm formation Staphylococcus epidermidis SW085 expressing icaA gene at 1/4 X MIC by microtiter plate assay; assay type: functional
[6] = system: Staphylococcus epidermidis; experiment: Enhancement of biofilm formation Staphylococcus epidermidis ATCC 35984 expressing icaA gene at 1/4 X MIC by microtiter plate assay; assay type: functional
[7] = system: Staphylococcus epidermidis; experiment: Antimicrobial activity against Staphylococcus epidermidis lacking compound-induced biofilms assessed as biofilm formation at 1/4 X MIC relative to untreated control; assay type: functional
[8] = system: Staphylococcus epidermidis; experiment: Antimicrobial activity against Staphylococcus epidermidis SW036 assessed as enhancement of biofilm formation after 18 hrs by microtiter plate assay; assay type: functional
[9] = system: Staphylococcus epidermidis; experiment: Upregulation of sigB gene expression in Staphylococcus epidermidis SW029 at 8 ug/ml after 6 hrs by RT-PCR relative to untreated control; assay type: functional
[10] = system: Staphylococcus epidermidis; experiment: Antimicrobial activity against Staphylococcus epidermidis lacking compound-induced biofilms; assay type: functional
[11] = system: Staphylococcus epidermidis; experiment: Upregulation of sarA gene expression in Staphylococcus epidermidis SW036 at 8 ug/ml after 6 hrs by RT-PCR relative to untreated control; assay type: functional
[12] = system: Staphylococcus epidermidis; experiment: Enhancement of biofilm formation Staphylococcus epidermidis SW126 expressing icaA gene at 1/4 X MIC by microtiter plate assay; assay type: functional
[13] = system: Staphylococcus epidermidis; experiment: Antimicrobial activity against Staphylococcus epidermidis SW029 expressing icaA gene; assay type: functional
[14] = system: Staphylococcus epidermidis; experiment: Enhancement of biofilm formation Staphylococcus epidermidis SW067 expressing icaA gene at 1/4 X MIC by microtiter plate assay; assay type: functional
[15] = system: Staphylococcus epidermidis; experiment: Antimicrobial activity against Staphylococcus epidermidis SW029 expressing icaA gene assessed as formation of multilayer biofilms at 48 hrs by SEM; assay type: functional, organism-based
[16] = system: Staphylococcus epidermidis; experiment: Antimicrobial activity against Staphylococcus epidermidis SW029 expressing icaA gene assessed as increased biofilm formation at 6 to 12 hrs by CLSM; assay type: functional, organism-based
[17] = system: Staphylococcus epidermidis; experiment: Upregulation of atlE gene expression in Staphylococcus epidermidis SW029 at 8 ug/ml after 6 hrs by RT-PCR relative to untreated control; assay type: functional
[18] = system: Staphylococcus epidermidis; experiment: Enhancement of biofilm formation Staphylococcus epidermidis SW104 expressing icaA gene at 1/4 X MIC by microtiter plate assay; assay type: functional
[19] = system: Staphylococcus epidermidis; experiment: Enhancement of biofilm formation Staphylococcus epidermidis SW029 expressing icaA gene at 1/4 X MIC by microtiter plate assay; assay type: functional
[20] = system: Staphylococcus epidermidis; experiment: Enhancement of biofilm formation Staphylococcus epidermidis SW058 expressing icaA gene at 1/4 X MIC by microtiter plate assay; assay type: functional
[21] = system: Staphylococcus epidermidis; experiment: Enhancement of biofilm formation Staphylococcus epidermidis SW088 at 1/4 X MIC by microtiter plate assay; assay type: functional
[22] = system: Staphylococcus epidermidis; experiment: Upregulation of icaA gene expression in Staphylococcus epidermidis SW029 at 8 ug/ml after 6 hrs by RT-PCR relative to untreated control; assay type: functional
[23] = system: Staphylococcus epidermidis; experiment: Enhancement of biofilm formation Staphylococcus epidermidis SW115 at 1/4 X MIC by microtiter plate assay; assay type: functional
[24] = system: Staphylococcus epidermidis; experiment: Enhancement of biofilm formation Staphylococcus epidermidis SW027 expressing icaA gene at 1/4 X MIC by microtiter plate assay; assay type: functional
[25] = system: Staphylococcus epidermidis; experiment: Upregulation of pyrR gene expression in Staphylococcus epidermidis SW029 at 8 ug/ml after 6 hrs by RT-PCR relative to untreated control; assay type: functional
[26] = system: Staphylococcus epidermidis; experiment: Enhancement of biofilm formation Staphylococcus epidermidis SW082 at 1/4 X MIC by microtiter plate assay; assay type: functional
[27] = system: Staphylococcus epidermidis; experiment: Effect on polysaccharide secretion in Staphylococcus epidermidis SW029 expressing icaA gene at 12 hrs by SEM; assay type: functional, organism-based
[28] = system: Staphylococcus epidermidis; experiment: Downregulation of sigB gene expression in Staphylococcus epidermidis SW029 at 8 ug/ml after 24 hrs by RT-PCR relative to untreated control; assay type: functional
[29] = system: Staphylococcus epidermidis; experiment: Upregulation of sigB gene expression in Staphylococcus epidermidis SW036 at 8 ug/ml after 6 hrs by RT-PCR relative to untreated control; assay type: functional
[30] = system: Staphylococcus epidermidis; experiment: Enhancement of biofilm formation Staphylococcus epidermidis SW036 at 1/4 X MIC by microtiter plate assay; assay type: functional
[31] = system: Staphylococcus epidermidis; experiment: Upregulation of atlE gene expression in Staphylococcus epidermidis SW036 at 8 ug/ml after 6 hrs by RT-PCR relative to untreated control; assay type: functional
[32] = system: Staphylococcus epidermidis; experiment: Enhancement of biofilm formation Staphylococcus epidermidis SW070 at 1/4 X MIC by microtiter plate assay; assay type: functional
[33] = system: Staphylococcus epidermidis; experiment: Enhancement of biofilm formation Staphylococcus epidermidis SW032 expressing icaA gene at 1/4 X MIC by microtiter plate assay; assay type: functional
[34] = system: Staphylococcus epidermidis; experiment: Antimicrobial activity against Staphylococcus epidermidis SW029 expressing icaA gene assessed as enhancement of biofilm formation after 18 hrs by microtiter plate assay; assay type: functional
[35] = system: Staphylococcus epidermidis; experiment: Antimicrobial activity against compound pretreated Staphylococcus epidermidis assessed as biofilm formation at 1/4 X MIC relative to untreated control; assay type: functional
[36] = system: Staphylococcus epidermidis; experiment: Enhancement of biofilm formation Staphylococcus epidermidis SW071 at 1/4 X MIC by microtiter plate assay; assay type: functional
[37] = system: Staphylococcus epidermidis; experiment: Enhancement of biofilm formation Staphylococcus epidermidis SW061 expressing icaA gene at 1/4 X MIC by microtiter plate assay; assay type: functional
[38] = system: Staphylococcus epidermidis; experiment: Enhancement of biofilm formation Staphylococcus epidermidis SW045 expressing icaA gene at 1/4 X MIC by microtiter plate assay; assay type: functional
[39] = system: Staphylococcus epidermidis; experiment: Antimicrobial activity against Staphylococcus epidermidis SW036; assay type: functional
[40] = system: Staphylococcus epidermidis; experiment: Antimicrobial activity against Staphylococcus epidermidis SW036 at 1/1024 X MIC; assay type: functional, organism-based
[41] = system: Staphylococcus epidermidis; experiment: Antimicrobial activity against compound pretreated Staphylococcus epidermidis biofilms; assay type: functional
[42] = system: Staphylococcus epidermidis; experiment: Enhancement of biofilm formation Staphylococcus epidermidis SW120 at 1/4 X MIC by microtiter plate assay; assay type: functional
[43] = system: Staphylococcus epidermidis; experiment: Enhancement of biofilm formation Staphylococcus epidermidis SW015 at 1/4 X MIC by microtiter plate assay; assay type: functional
[44] = system: Staphylococcus epidermidis; experiment: Enhancement of biofilm formation Staphylococcus epidermidis SW021 at 1/4 X MIC by microtiter plate assay; assay type: functional
[45] = system: Staphylococcus epidermidis; experiment: Upregulation of fruA gene expression in Staphylococcus epidermidis SW029 at 8 ug/ml after 6 hrs by RT-PCR relative to untreated control; assay type: functional
[46] = system: Staphylococcus epidermidis; experiment: Upregulation of fruA gene expression in Staphylococcus epidermidis SW036 at 8 ug/ml after 6 hrs by RT-PCR relative to untreated control; assay type: functional
[47] = system: Staphylococcus epidermidis; experiment: Upregulation of atlE gene expression in Staphylococcus epidermidis SW029 at 8 ug/ml after 24 hrs by RT-PCR relative to untreated control; assay type: functional
[48] = system: Staphylococcus epidermidis; experiment: Upregulation of icaA gene expression in Staphylococcus epidermidis SW029 at 8 ug/ml after 24 hrs by RT-PCR relative to untreated control; assay type: functional
[49] = system: Staphylococcus epidermidis; experiment: Upregulation of sarA gene expression in Staphylococcus epidermidis SW029 at 8 ug/ml after 24 hrs by RT-PCR relative to untreated control; assay type: functional

**Q.** For CC[C@H]1OC(=O)[C@H](C)[C@@H](O[C@H]2C[C@@](C)(OC)[C@@H](O)[C@H](C)O2)[C@H](C)[C@@H](O[C@@H]2O[C@H](C)C[C@H](N(C)C)[C@H]2O)[C@](C)(O)C[C@@H](C)C(=O)[C@H](C)[C@@H](O)[C@]1(C)O [ERYTHROMYCIN], which “fold change (FC)” value [1] is on record?
**A.** 1.7

**Q.** And the Activity [2]?
**A.** 55.7%

**Q.** What about the “fold change (FC)” value [3] of the same compound?
**A.** 2.4

**Q.** And the Activity [4]?
**A.** 93.9%

**Q.** And the Activity [5]?
**A.** 297.8%

**Q.** What about the Activity [6] of the same compound?
**A.** 7%

**Q.** What about the Ratio [7] of the same compound?
**A.** 1.02

**Q.** What about the Activity [8] of the same compound?
**A.** 100%

**Q.** And the “fold change (FC)” value [9]?
**A.** 2

**Q.** What about the MIC [10] of the same compound?
**A.** ≥ 16 µg/mL

**Q.** And the “fold change (FC)” value [11]?
**A.** 1.7

**Q.** And the Activity [12]?
**A.** 56.1%

**Q.** And the MIC [13]?
**A.** > 128 µg/mL

**Q.** And the Activity [14]?
**A.** 150.3%

**Q.** And the Activity [15]?
**A.** inactive

**Q.** And the Activity [16]?
**A.** inactive

**Q.** And the “fold change (FC)” value [17]?
**A.** 6.2

**Q.** What about the Activity [18] of the same compound?
**A.** 63.2%

**Q.** And the Activity [19]?
**A.** 159.6%

**Q.** And the Activity [20]?
**A.** 37.9%

**Q.** And the Activity [21]?
**A.** 163.1%

**Q.** And the “fold change (FC)” value [22]?
**A.** 1.2

**Q.** And the Activity [23]?
**A.** 166.8%

**Q.** What about the Activity [24] of the same compound?
**A.** 60.4%

**Q.** And the “fold change (FC)” value [25]?
**A.** 3.7

**Q.** What about the Activity [26] of the same compound?
**A.** 58.7%

**Q.** What about the Activity [27] of the same compound?
**A.** inactive

**Q.** What about the “fold change (FC)” value [28] of the same compound?
**A.** 0.6

**Q.** And the “fold change (FC)” value [29]?
**A.** 1.4

**Q.** What about the Activity [30] of the same compound?
**A.** 284.3%

**Q.** What about the “fold change (FC)” value [31] of the same compound?
**A.** 1.8

**Q.** And the Activity [32]?
**A.** 172.2%

**Q.** And the Activity [33]?
**A.** 78.5%

**Q.** And the Activity [34]?
**A.** 173%

**Q.** What about the Ratio [35] of the same compound?
**A.** 2.51

**Q.** And the Activity [36]?
**A.** 230.4%

**Q.** What about the Activity [37] of the same compound?
**A.** 50.8%

**Q.** And the Activity [38]?
**A.** 47.2%

**Q.** What about the MIC [39] of the same compound?
**A.** > 128 µg/mL

**Q.** And the Activity [40]?
**A.** Active

**Q.** What about the MIC [41] of the same compound?
**A.** ≥ 32 µg/mL

**Q.** And the Activity [42]?
**A.** 69.4%

**Q.** What about the Activity [43] of the same compound?
**A.** 87.8%

**Q.** What about the Activity [44] of the same compound?
**A.** 34.7%

**Q.** What about the “fold change (FC)” value [45] of the same compound?
**A.** 4.5

**Q.** What about the “fold change (FC)” value [46] of the same compound?
**A.** 2.4

**Q.** What about the “fold change (FC)” value [47] of the same compound?
**A.** 2.4

**Q.** What about the “fold change (FC)” value [48] of the same compound?
**A.** 2.8

**Q.** And the “fold change (FC)” value [49]?
**A.** 6.9
